Data taken from patent US5256700A (priority 1990, dated 1993).

Key:
Chemical stability = assay type: physicochemical
[1] = tested on: simple herpes of type 1 (HSV1); experiment: Antiviral activity in vitro, test 1 (titer after 2 h incubation), HSV1; assay type: cell-based, HSV1 (cultured on VERO cell line); conditions: control 10^5
[2] = tested on: certain microorganisms responsible for dental caries and bad breath; conditions: CA 97, 84835q; cited from earlier work
DNA = experiment: Degradation of DNA caused by free radicals
[3] = tested on: simple herpes of type 2 (HSV2); experiment: Antiviral activity in vitro, test 2 (viral production after 4 days), HSV2; assay type: cell-based, HSV2 (cultured on VERO cell line); conditions: for Number of viral particles/0.025 ml supernatant, Test 2 HSV2: control 10^7
[4] = tested on: simple herpes of type 1 (HSV1); experiment: Antiviral activity in vitro, test 2 (viral production after 4 days), HSV1; assay type: cell-based, HSV1 (cultured on VERO cell line); conditions: for Number of viral particles/0.025 ml supernatant, Test 2 HSV1: control 2 × 10^8
[5] = tested on: simple herpes of type 2 (HSV2); experiment: Antiviral activity in vitro, test 1 (titer after 2 h incubation), HSV2; assay type: cell-based, HSV2 (cultured on VERO cell line); conditions: control 10^4
[6] = Brieskorn and Domling 1969; cited from earlier work

CC(C)c1cc2c(c(O)c1O)[C@@]1(C(=O)O)CCCC(C)(C)[C@@H]1CC2 [Carnosic acid]
sensitivity to oxidation (Chemical stability; like any catechol-type molecule): highly sensitive to oxidation
stability, purified and crystallized form (Chemical stability; purified and crystallized form): stable
Number of viral particles/0.025 ml supernatant, Test 1 HSV1 ([1]; 0.62 μg/ml): 10^4 viral particles/0.025 ml supernatant
Number of viral particles/0.025 ml supernatant, Test 1 HSV1 ([1]; 1.25 μg/ml): 10^3 viral particles/0.025 ml supernatant
Number of viral particles/0.025 ml supernatant, Test 1 HSV1 ([1]; 2.5 μg/ml): 10 viral particles/0.025 ml supernatant
Number of viral particles/0.025 ml supernatant, Test 1 HSV1 ([1]; 5 μg/ml): 10 viral particles/0.025 ml supernatant
antibiotic activity against microorganisms responsible for dental caries and bad breath [2]: against certain microorganisms responsible for dental caries and bad breath
effect on the degradation of DNA caused by the free radicals (DNA): inhibiting effect
Number of viral particles/0.025 ml supernatant, Test 2 HSV2 ([3]; 0.62 μg/ml): 8 × 10^5 viral particles/0.025 ml supernatant
Number of viral particles/0.025 ml supernatant, Test 2 HSV2 ([3]; 1.25 μg/ml): 10^5 viral particles/0.025 ml supernatant
Number of viral particles/0.025 ml supernatant, Test 2 HSV2 ([3]; 2.5 μg/ml): 2 × 10^2 viral particles/0.025 ml supernatant
Number of viral particles/0.025 ml supernatant, Test 2 HSV2 ([3]; 5 μg/ml): < 10 viral particles/0.025 ml supernatant
production of HSV2 ([3]; test 2): greatly affected
cell toxicity (VERO cell line): absence of cell toxicity
Number of viral particles/0.025 ml supernatant, Test 2 HSV1 ([4]; 0.62 μg/ml): 6 × 10^6 viral particles/0.025 ml supernatant
Number of viral particles/0.025 ml supernatant, Test 2 HSV1 ([4]; 1.25 μg/ml): 2.5 × 10^6 viral particles/0.025 ml supernatant
Number of viral particles/0.025 ml supernatant, Test 2 HSV1 ([4]; 2.5 μg/ml): 10^5 viral particles/0.025 ml supernatant
Number of viral particles/0.025 ml supernatant, Test 2 HSV1 ([4]; 5 μg/ml): 10^2 viral particles/0.025 ml supernatant
production of HSV1 ([4]; test 2): greatly affected
Number of viral particles/0.025 ml supernatant, Test 1 HSV2 ([5]; 0.62 μg/ml): 10 viral particles/0.025 ml supernatant
Number of viral particles/0.025 ml supernatant, Test 1 HSV2 ([5]; 1.25 μg/ml): 10 viral particles/0.025 ml supernatant
Number of viral particles/0.025 ml supernatant, Test 1 HSV2 ([5]; 2.5 μg/ml): 10 viral particles/0.025 ml supernatant
Number of viral particles/0.025 ml supernatant, Test 1 HSV2 ([5]; 5 μg/ml): 10 viral particles/0.025 ml supernatant
antioxidant activity [6]: powerful antioxidant
